Reference: article PMC7414031, “Correlation between hemolytic activity, cytotoxicity and systemic in vivo toxicity of synthetic antimicrobial peptides” (Scientific Reports, 2020)
≈ marks a conversion by molar mass, not a printed value. Square brackets hold non-standard residues; d marks the D form. Peptide text beside a SMILES is read from it. N(1-naphthylmethyl)Gly = O=C(O)CNCc1cccc2ccccc12; Nphe = O=C(O)CNCc1ccccc1; NBuGly = CCCCNCC(=O)O

Tests used:
[1] = test system: human erythrocytes; conditions: cited from earlier work
[2] = test system: Staphylococcus aureus; set-up: method as in PMID 30842436; conditions: cited from earlier work
[3] = in vitro; type: cell-based, rat (Sprague–Dawley); conditions: Sprague-Dawley, rat
Method: (§1) The haemolytic activity of the 24 structurally related peptides (Table 1) was evaluated in erythrocytes from four different species (human, canine, bovine and rat) employing standard methodology. The subsequent release of haemoglobin was used to assess haemolytic activity as function of peptide and peptidomimetic concentration, with concentrations ranging from 0.15 to 150 µM (Presented in whole in Supplementary information Table S1–S4).
(§2) Human and rat (Sprague–Dawley) blood samples were purchased by Bioreclamation IVT (Westbury, NY, USA), collected in tubes containing heparin as anticoagulant and stored at 4 °C before use. Dog and bovine whole blood was collected from in-house animals at Zoetis Animal Health, Kalamazoo, Michigan and stored at 4 °C in tubes containing heparin as anticoagulant. 10 mL of each whole blood sample were centrifuged at 1,500 × g for 5 min and the resulting plasma fraction was removed from the samples. The pellets were washed with an equal volume (10 mL) of saline, mixing by inversion. The centrifuging and washing steps were repeated 5 times. After the last washing step, a volume of PBS was added, and the resulting samples were diluted 1:10 with PBS to yield an RBC concentration of ~ 5 × 10^8 RBC/mL. The assay was performed in a 384-well polypropylene microplate (Greiner 784201, Greiner Bio-One International, GMBH) through a Bravo Liquid Handling Platform 384 system (Agilent Technologies, Santa Clara, CA, USA) according to the previously published procedures. The compounds were tested in serial 1:1 dilutions in PBS, with final concentrations ranging from 150 to 1.2 µM. Melittin was used as reference lytic peptide. 1% TritonX100 and PBS were used as positive and negative (diluent) controls, respectively. The final concentrations were obtained by adding to the wells 7 µL of each solution, melittin or PBS, followed by 63 µL of RBCs to each well. The plate was sealed, shaken on a plate shaker for 20 s, incubated for one hour at 37 °C. Finally, it was centrifuged at 1,500 × g for 5 min at room temperature. 60 µL of supernatants were removed from all plate wells via a Bravo 384 robot and transferred to a flat-bottomed 384-well plate (Greiner UV-Star #7810801, Greiner Bio-One International, GMBH). The plate was centrifuged at 1,000 g for 1 min to remove air bubbles and optical density was measured at 405 nm using a plate reader. Percentage of haemolysis was calculated with the following equation: %haemolysis=(absorbance of test sample)-absorbance of diluent/absorbance of positive control-absorbance of diluent×100.

[4] = test system: rat erythrocytes; assay: in vitro; type: cell-based, rat (Sprague–Dawley); conditions: for IC10 haemolysis: rat erythrocytes; for IC50: red cells of rat
Method: as §1, §2

[5] = in vitro; type: cell-based, human; conditions: human
Method: as §1, §2

[6] = test system: human erythrocytes; assay: in vitro; type: cell-based; conditions: for IC10 haemolysis: human erythrocytes; for IC50: red cells of human
Method: as §1, §2

[7] = in vitro; type: cell-based, dog; conditions: dog
Method: as §1, §2

[8] = test system: canine erythrocytes; assay: in vitro; type: cell-based, dog; conditions: for IC10 haemolysis: canine erythrocytes; for IC50: red cells of canine
Method: as §1, §2

[9] = test system: Pseudomonas aeruginosa; set-up: method as in PMID 30842436; conditions: cited from earlier work
[10] = test system: Staphylococcus pseudintermedius; conditions: cited from earlier work; for S.p. MIC: Staphylococcus pseudintermedius, Table S5, in µM
[11] = in vitro; type: cell-based, bovine; conditions: bovine
Method: as §1, §2

[12] = test system: HaCaT cells; type: cell-based, human; conditions: 1 h
Method: (§3) An immortalised human keratinocyte (HaCaT) cell line (Gift from David Gram Naym at Bispebjerg Hospital, Denmark), a human liver cancer cell line (HepG2; ATCC HB-8065) and a human epithelial cervical cancer cell line (HeLa; ATCC CCL-2) were cultured to ∼90% confluence after 21–25 h of growth under standard conditions (5% CO2 at 37 °C). Cells were cultured in Dulbecco’s Modified Eagle’s Medium supplemented with 10% (v/v) fetal bovine serum (FBS). All culture media were supplemented with penicillin (100 IU/mL) and streptomycin (100 μg/mL). All cell media and supplements were obtained from Sigma-Aldrich (St. Louis, MO, United States). The 96-well plates were supplied by Corning Costar (Sigma-Aldrich, Brøndby, Denmark). Cell viability assessment was performed on cell monolayers grown to ∼90% confluence in 96-well plates by using the MTS/PMS assay as previously described. Briefly, the adhered cells were washed with PBS solution (37 °C) (ThermoFisher Scientific, Roskilde) and exposed for 1 h at 37 °C to 100 μL of peptides dissolved in the medium also used for culturing of the cell line (at concentrations in the range 0–1,000 μg/mL). The cells were subsequently washed twice with 37 °C PBS and then 100 μL of an MTS/PMS solution in media, consisting of 240 μg/mL MTS (Promega, Madison, WI, United States) and 2.4 mg/mL PMS (Promega, Madison, WI, United States), was added to the cells, which then were incubated for 1 h at 37 °C protected from light. A plate reader (SpectraMax i3X; Molecular devices, San Jose, CA) was used to measure the absorbance at 492 nm. The relative viability was calculated by using 0.2% (w/v) sodium dodecyl sulfate (SDS) as the positive control, while cells exposed to medium without test compound were used as the negative control.

[13] = test system: HeLa cells; type: cell-based, human; conditions: 1 h
Method: as §3

[14] = test system: bovine erythrocytes; assay: in vitro; type: cell-based; conditions: bovine erythrocytes
Method: as §1, §2

SMILES | IC50 [4] [µM] | IC50 [6] [µM] | IC50 [8] [µM] | IC50 [13] [µM] | Previously reported haemolytic activity against human erythrocytes (in words) [1] | MIC against Staphylococcus aureus [2] [µg/mL] | hemolysis at 1 h, 150 µM [3] [%] | Haemolysis at 80 µM (in words) [4] | IC10 haemolysis [4] [µM] | hemolysis at 1 h, 150 µM [5] [%] | Haemolysis at 80 µM (in words) [6] | IC10 haemolysis [6] [µM] | hemolysis at 1 h, 150 µM [7] [%] | Haemolysis at 80 µM (in words) [8] | IC10 haemolysis [8] [µM] | MIC against Pseudomonas aeruginosa [9] [µg/mL] | MIC against Staphylococcus pseudintermedius [10] [µg/mL] | hemolysis at 1 h, 150 µM [11] [%] | IC50 [12] [µM] | S.p. MIC [10] [µM] | also measured
CCCC[C@H](NC(=O)[C@H](CCCCN)NC(=O)[C@H](CCCCN)NC(=O)[C@@H](N)CCCCN)C(=O)N[C@@H](Cc1ccc2ccccc2c1)C(=O)N[C@@H](Cc1ccccc1)C(=O)N[C@@H](Cc1ccc2ccccc2c1)C(N)=O [Compound 18, Lys-Lys-Lys-Nle-(2-Nal)Ala-Phe-(2-Nal)Ala] (HELM PEPTIDE1{K.K.K.[Nle].[O=C([C@H](Cc1ccc2ccccc2c1)N[*:1])[*:2]].F.[O=C([C@H](Cc1ccc2ccccc2c1)N[*:1])[*:2]].[am]}$$$$V2.0) | 87.8 | 95.6 | 42.7 | – | high in vitro haemolytic activity | 32 to 64 | 98.6 | near total haemolysis | 64.4 | 58.8 | near total haemolysis | 18.7 | 101 | near total haemolysis | 21.4 | 8 (≈ 7.57 µM) | 2 to 4 | < 8 | – | – | –
CC(C)C[C@@H](NC(=O)[C@H](CCCCN)NC(=O)[C@@H](Cc1cccc2ccccc12)NC(=O)[C@@H](Cc1ccccc1)NC(=O)[C@H](N)Cc1cccc2ccccc12)C(=O)N[C@@H](CCCCN)C(=O)N[C@@H](CCCCN)C(N)=O [Compound 8, (1-Nal)Ala-Phe-(1-Nal)Ala-Lys-Leu-Lys-Lys] (HELM PEPTIDE1{[N[C@H](Cc1cccc2ccccc12)C(=O)[*:2]].[dF].[O=C([C@@H](Cc1cccc2ccccc12)N[*:1])[*:2]].K.[dL].K.K.[am]}$$$$V2.0) | > 150 | > 150 | > 150 | – | no haemolytic activity | 32 to 64 | < 8 | – | > 150 | 34.3 | – | 57.0 | 25.8 | – | 66.0 | > 64 | 16 (≈ 15.1 µM) | < 8 | – | – | –
CC(C)C[C@H](NC(=O)[C@H](CCCCN)NC(=O)[C@@H](N)CCCCN)C(=O)N[C@@H](CCCCN)C(=O)N[C@@H](Cc1ccc2ccccc2c1)C(=O)N[C@@H](Cc1ccccc1)C(=O)N[C@@H](Cc1ccc2ccccc2c1)C(N)=O [Compound 1, Lys-Lys-Leu-Lys-(2-Nal)Ala-Phe-(2-Nal-)Ala] (HELM PEPTIDE1{K.K.L.K.[O=C([C@H](Cc1ccc2ccccc2c1)N[*:1])[*:2]].F.[O=C([C@H](Cc1ccc2ccccc2c1)N[*:1])[*:2]].[am]}$$$$V2.0) | > 150 | > 150 | > 150 | 462 | – | 16 (≈ 15.1 µM) | < 8 | – | > 150 | < 8 | – | > 150 | 19.7 | – | 34.2 | 32 (≈ 30.3 µM) | 8 (≈ 7.57 µM) | 32.5 | 654 | 7.6 | IC10 haemolysis [14]: 45.1 µM

Continued, in another order:

IC50 [4] [µM] | IC50 [6] [µM] | IC50 [8] [µM] | IC50 [13] [µM] | SMILES | Previously reported haemolytic activity against human erythrocytes (in words) [1] | MIC against Staphylococcus aureus [2] [µg/mL] | hemolysis at 1 h, 150 µM [3] [%] | Haemolysis at 80 µM (in words) [4] | IC10 haemolysis [4] [µM] | hemolysis at 1 h, 150 µM [5] [%] | Haemolysis at 80 µM (in words) [6] | IC10 haemolysis [6] [µM] | hemolysis at 1 h, 150 µM [7] [%] | Haemolysis at 80 µM (in words) [8] | IC10 haemolysis [8] [µM] | MIC against Pseudomonas aeruginosa [9] [µg/mL] | MIC against Staphylococcus pseudintermedius [10] [µg/mL] | hemolysis at 1 h, 150 µM [11] [%] | IC50 [12] [µM] | S.p. MIC [10] [µM] | also measured
> 150 | > 150 | > 150 | – | CC(C)C[C@@H](NC(=O)[C@@H](Cc1cccc2ccccc12)NC(=O)[C@@H](Cc1ccccc1)NC(=O)[C@H](N)Cc1cccc2ccccc12)C(=O)N[C@@H](CCCCN)C(=O)N[C@@H](CCCCN)C(=O)N[C@@H](CCCCN)C(N)=O [Compound 9, (1-Nal)Ala-Phe-(1-Nal)Ala-Leu-Lys-Lys-Lys] (HELM PEPTIDE1{[N[C@H](Cc1cccc2ccccc12)C(=O)[*:2]].[dF].[O=C([C@@H](Cc1cccc2ccccc12)N[*:1])[*:2]].[dL].K.K.K.[am]}$$$$V2.0) | no haemolytic activity | 32 (≈ 30.3 µM) | < 8 | – | > 150 | 30.8 | – | 104.1 | 25.5 | – | 65.0 | 32 (≈ 30.3 µM) | 16 (≈ 15.1 µM) | < 8 | – | – | –
47.6 | 41.7 | 65.7 | 394 | CCCCN(CC(=O)N(CC(=O)N(CC(=O)N(CC(N)=O)Cc1cccc2ccccc12)Cc1ccccc1)Cc1cccc2ccccc12)C(=O)[C@H](CCCCN)NC(=O)[C@H](CCCCN)NC(=O)[C@@H](N)CCCCN [Compound 15, Lys-Lys-Lys-(N-Bu)Gly-(N1-Nal)Gly-(N-Phe)Gly-(N1-Nal)Gly] (H-KKK[NBuGly][N(1-naphthylmethyl)Gly][Nphe][N(1-naphthylmethyl)Gly]-NH2) | – | 16 (≈ 15.1 µM) | 99.5 | near total haemolysis | 35.61 | 94.2 | near total haemolysis | 8.4 | 87.1 | near total haemolysis | 11.6 | 32 (≈ 30.3 µM) | 4 (≈ 3.79 µM) | < 8 | 297 | 3.8 | –
